Data from article PMC2822479 (American Journal of Physiology - Endocrinology and …, 2009).
Where a SMILES comes first, the peptide text is derived from it.

These compounds were tested against human KISS1R (Homo sapiens, UniProt Q969F8) (assay: Receptor binding assay, competition against [125I]KP-54 in CHO-KISS1R membranes). Details: SEM.
human KISS1R, sequence (Q969F8 whole entry): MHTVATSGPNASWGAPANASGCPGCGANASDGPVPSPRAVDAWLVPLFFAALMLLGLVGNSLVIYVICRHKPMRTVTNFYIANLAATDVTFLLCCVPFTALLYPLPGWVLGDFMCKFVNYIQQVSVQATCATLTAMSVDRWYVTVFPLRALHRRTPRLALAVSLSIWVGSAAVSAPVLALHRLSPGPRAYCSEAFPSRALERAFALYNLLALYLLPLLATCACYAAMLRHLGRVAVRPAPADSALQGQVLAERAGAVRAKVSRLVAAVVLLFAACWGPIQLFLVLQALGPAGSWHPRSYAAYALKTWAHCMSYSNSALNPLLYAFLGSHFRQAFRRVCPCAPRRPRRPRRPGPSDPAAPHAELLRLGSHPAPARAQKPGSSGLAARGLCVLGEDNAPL
`CC(C)C[C@H](NC(=O)CNC(=O)[C@H](Cc1ccccc1)NC(=O)[C@H](CO)NC(=O)[C@H](CC(N)=O)NC(=O)[C@H](Cc1c[nH]c2ccccc12)NC(=O)[C@H](CC(N)=O)NC(=O)[C@H](C)N)C(=O)N[C@@H](CCCNC(=N)N)C(=O)N[C@@H](Cc1ccccc1)C(N)=O` [ANA1] (H-ANWNSFGLRF-NH2) showed an IC50 of 23.2 nM.
Compound `CC(C)C[C@H](NC(=O)CNC(=O)[C@H](Cc1ccccc1)NC(=O)[C@H](CO)NC(=O)[C@H](CC(N)=O)NC(=O)[C@H](Cc1c[nH]c2ccccc12)NC(=O)[C@H](C)NC(=O)[C@@H](N)Cc1ccc(O)cc1)C(=O)N[C@@H](CCCNC(=N)N)C(=O)N[C@@H](Cc1ccccc1)C(N)=O` [ANA2] (H-YAWNSFGLRF-NH2) has an IC50 of 145 nM.
`CC(C)C[C@H](NC(=O)CNC(=O)[C@H](Cc1ccccc1)NC(=O)[C@H](CO)NC(=O)[C@H](CC(N)=O)NC(=O)[C@H](C)NC(=O)[C@H](CC(N)=O)NC(=O)[C@@H](N)Cc1ccc(O)cc1)C(=O)N[C@@H](CCCNC(=N)N)C(=O)N[C@@H](Cc1ccccc1)C(N)=O` [ANA3] (H-YNANSFGLRF-NH2) was tested, and the IC50 was 2.7 nM.
Work on `CC(C)C[C@H](NC(=O)CNC(=O)[C@H](Cc1ccccc1)NC(=O)[C@H](CO)NC(=O)[C@H](C)NC(=O)[C@H](Cc1c[nH]c2ccccc12)NC(=O)[C@H](CC(N)=O)NC(=O)[C@@H](N)Cc1ccc(O)cc1)C(=O)N[C@@H](CCCNC(=N)N)C(=O)N[C@@H](Cc1ccccc1)C(N)=O` [ANA4] (H-YNWASFGLRF-NH2) yielded an IC50 of 43.5 nM.
Work on `CC(C)C[C@H](NC(=O)CNC(=O)[C@H](Cc1ccccc1)NC(=O)[C@H](C)NC(=O)[C@H](CC(N)=O)NC(=O)[C@H](Cc1c[nH]c2ccccc12)NC(=O)[C@H](CC(N)=O)NC(=O)[C@@H](N)Cc1ccc(O)cc1)C(=O)N[C@@H](CCCNC(=N)N)C(=O)N[C@@H](Cc1ccccc1)C(N)=O` [ANA5] (H-YNWNAFGLRF-NH2) yielded an IC50 of 0.8 nM.
Compound `CC(C)C[C@H](NC(=O)CNC(=O)[C@H](C)NC(=O)[C@H](CO)NC(=O)[C@H](CC(N)=O)NC(=O)[C@H](Cc1c[nH]c2ccccc12)NC(=O)[C@H](CC(N)=O)NC(=O)[C@@H](N)Cc1ccc(O)cc1)C(=O)N[C@@H](CCCNC(=N)N)C(=O)N[C@@H](Cc1ccccc1)C(N)=O` [ANA6] (H-YNWNSAGLRF-NH2) has an IC50 of 110 nM.
`CC(C)C[C@H](NC(=O)[C@H](C)NC(=O)[C@H](Cc1ccccc1)NC(=O)[C@H](CO)NC(=O)[C@H](CC(N)=O)NC(=O)[C@H](Cc1c[nH]c2ccccc12)NC(=O)[C@H](CC(N)=O)NC(=O)[C@@H](N)Cc1ccc(O)cc1)C(=O)N[C@@H](CCCNC(=N)N)C(=O)N[C@@H](Cc1ccccc1)C(N)=O` [ANA7] (H-YNWNSFALRF-NH2) showed an IC50 of 4.6 nM.
With `C[C@H](NC(=O)CNC(=O)[C@H](Cc1ccccc1)NC(=O)[C@H](CO)NC(=O)[C@H](CC(N)=O)NC(=O)[C@H](Cc1c[nH]c2ccccc12)NC(=O)[C@H](CC(N)=O)NC(=O)[C@@H](N)Cc1ccc(O)cc1)C(=O)N[C@@H](CCCNC(=N)N)C(=O)N[C@@H](Cc1ccccc1)C(N)=O` [ANA8] (H-YNWNSFGARF-NH2) the IC50 was 77.4 nM.
In the case of `CC(C)C[C@H](NC(=O)CNC(=O)[C@H](Cc1ccccc1)NC(=O)[C@H](CO)NC(=O)[C@H](CC(N)=O)NC(=O)[C@H](Cc1c[nH]c2ccccc12)NC(=O)[C@H](CC(N)=O)NC(=O)[C@@H](N)Cc1ccc(O)cc1)C(=O)N[C@@H](C)C(=O)N[C@@H](Cc1ccccc1)C(N)=O` [ANA9] (H-YNWNSFGLAF-NH2), the IC50 is reported as 42.3 nM.
`CC(C)C[C@H](NC(=O)CNC(=O)[C@H](Cc1ccccc1)NC(=O)[C@H](CO)NC(=O)[C@H](CC(N)=O)NC(=O)[C@H](Cc1c[nH]c2ccccc12)NC(=O)[C@H](CC(N)=O)NC(=O)[C@@H](N)Cc1ccccc1)C(=O)N[C@@H](CCCNC(=N)N)C(=O)N[C@@H](Cc1ccccc1)C(N)=O` [ANA11] (H-FNWNSFGLRF-NH2) gave an IC50 of 3.5 nM.
With `CC(C)C[C@H](NC(=O)CNC(=O)[C@H](Cc1ccccc1)NC(=O)[C@H](CO)NC(=O)[C@H](CC(N)=O)NC(=O)[C@H](Cc1c[nH]c2ccccc12)NC(=O)[C@H](CC(=O)O)NC(=O)[C@@H](N)Cc1ccc(O)cc1)C(=O)N[C@@H](CCCNC(=N)N)C(=O)N[C@@H](Cc1ccccc1)C(N)=O` [ANA12] (H-YDWNSFGLRF-NH2) the IC50 was 29.1 nM.
In the case of `CC(C)C[C@H](NC(=O)CNC(=O)[C@H](Cc1ccccc1)NC(=O)[C@H](CO)NC(=O)[C@H](CC(=O)O)NC(=O)[C@H](Cc1c[nH]c2ccccc12)NC(=O)[C@H](CC(N)=O)NC(=O)[C@@H](N)Cc1ccc(O)cc1)C(=O)N[C@@H](CCCNC(=N)N)C(=O)N[C@@H](Cc1ccccc1)C(N)=O` [ANA13] (H-YNWDSFGLRF-NH2), the IC50 is reported as 140 nM.
Work on `CC(C)C[C@H](NC(=O)CNC(=O)[C@H](Cc1ccccc1)NC(=O)[C@@H](NC(=O)[C@H](CC(N)=O)NC(=O)[C@H](Cc1c[nH]c2ccccc12)NC(=O)[C@H](CC(N)=O)NC(=O)[C@@H](N)Cc1ccc(O)cc1)[C@@H](C)O)C(=O)N[C@@H](CCCNC(=N)N)C(=O)N[C@@H](Cc1ccccc1)C(N)=O` [ANA14] (H-YNWNTFGLRF-NH2) yielded an IC50 of 2.3 nM.
In the case of `CC(C)C[C@H](NC(=O)CNC(=O)[C@H](Cc1ccc(O)cc1)NC(=O)[C@H](CO)NC(=O)[C@H](CC(N)=O)NC(=O)[C@H](Cc1c[nH]c2ccccc12)NC(=O)[C@H](CC(N)=O)NC(=O)[C@@H](N)Cc1ccc(O)cc1)C(=O)N[C@@H](CCCNC(=N)N)C(=O)N[C@@H](Cc1ccccc1)C(N)=O` [ANA15] (H-YNWNSYGLRF-NH2), the IC50 is reported as 87.5 nM.
Compound `CC[C@H](C)[C@H](NC(=O)CNC(=O)[C@H](Cc1ccccc1)NC(=O)[C@H](CO)NC(=O)[C@H](CC(N)=O)NC(=O)[C@H](Cc1c[nH]c2ccccc12)NC(=O)[C@H](CC(N)=O)NC(=O)[C@@H](N)Cc1ccc(O)cc1)C(=O)N[C@@H](CCCNC(=N)N)C(=O)N[C@@H](Cc1ccccc1)C(N)=O` [ANA16] (H-YNWNSFGIRF-NH2) has an IC50 of 39.9 nM.
Compound `CC(C)C[C@H](NC(=O)CNC(=O)[C@H](Cc1ccccc1)NC(=O)[C@H](CO)NC(=O)[C@H](CC(N)=O)NC(=O)[C@H](Cc1c[nH]c2ccccc12)NC(=O)[C@H](CC(N)=O)NC(=O)[C@@H](N)Cc1ccc(O)cc1)C(=O)N[C@@H](CCCCN)C(=O)N[C@@H](Cc1ccccc1)C(N)=O` [ANA17] (H-YNWNSFGLKF-NH2) has an IC50 of 9.8 nM.
Compound `CC(C)C[C@H](NC(=O)CNC(=O)[C@H](Cc1ccccc1)NC(=O)[C@H](CO)NC(=O)[C@H](CC(N)=O)NC(=O)[C@H](Cc1c[nH]c2ccccc12)NC(=O)[C@H](CC(N)=O)NC(=O)[C@@H](N)Cc1ccc(O)cc1)C(=O)N[C@@H](CCCNC(=N)N)C(=O)N[C@@H](Cc1c[nH]cn1)C(N)=O` [ANA18] (H-YNWNSFGLRH-NH2) has an IC50 of 378 nM.
`CC(C)C[C@H](NC(=O)CNC(=O)[C@H](Cc1ccccc1)NC(=O)[C@H](CO)NC(=O)[C@H](CC(N)=O)NC(=O)[C@H](Cc1c[nH]c2ccccc12)NC(=O)[C@H](CC(N)=O)NC(=O)[C@H](N)Cc1ccc(O)cc1)C(=O)N[C@@H](CCCNC(=N)N)C(=O)N[C@@H](Cc1ccccc1)C(N)=O` [ANA19] showed an IC50 of 3.6 nM.
`CC(C)C[C@H](NC(=O)CNC(=O)[C@@H](Cc1ccccc1)NC(=O)[C@H](CO)NC(=O)[C@H](CC(N)=O)NC(=O)[C@H](Cc1c[nH]c2ccccc12)NC(=O)[C@H](CC(N)=O)NC(=O)[C@@H](N)Cc1ccc(O)cc1)C(=O)N[C@@H](CCCNC(=N)N)C(=O)N[C@@H](Cc1ccccc1)C(N)=O` [ANA20] gave an IC50 of 253 nM.
In the case of `CC(C)C[C@H](NC(=O)CNC(=O)[C@H](Cc1ccccc1)NC(=O)[C@H](CO)NC(=O)[C@H](CC(N)=O)NC(=O)[C@H](Cc1c[nH]c2ccccc12)NC(=O)[C@H](CC(N)=O)NC(=O)[C@@H](N)Cc1ccc(O)cc1)C(=O)N[C@@H](CCCNC(=N)N)C(=O)N[C@H](Cc1ccccc1)C(N)=O` [ANA21], the IC50 is reported as 447 nM.
For `CC(C)C[C@H](NC(=O)CNC(=O)[C@H](Cc1ccccc1)NC(=O)[C@H](CO)NC(=O)[C@H](CC(N)=O)NC(=O)[C@H](Cc1c[nH]c2ccccc12)NC(=O)[C@H](CC(N)=O)NC(=O)[C@@H](N)Cc1ccc(O)cc1)C(=O)N[C@@H](CCCNC(=N)N)C(=O)N[C@@H](Cc1ccccc1)C(N)=O` [KP-10, kisspeptin-10, reference compound], the IC50 was 1 nM.
